Assay results from paper PMC4521081, “Thiophenecarboxamide Derivatives Activated by EthA Kill Mycobacterium tuberculosis by Inhibiting the CTP Synthetase PyrG” (Chemistry & Biology, 2015).
Converted amounts (≈) assume the structure as drawn.

Columns and labels:
[1] = system: M. tuberculosis 82.19 (ethA L129P, pyrG V186G); format: cell-based, Mycobacterium tuberculosis
[2] = system: M. tuberculosis 82.14 (ethA W45R, pyrG V186G); format: cell-based, Mycobacterium tuberculosis
[3] = system: M. tuberculosis 88.10 (pyrG V186G); format: cell-based, Mycobacterium tuberculosis
[4] = system: M. tuberculosis 82.22 (ethA ΔT-94, pyrG V186G); format: cell-based, Mycobacterium tuberculosis
[5] = system: M. tuberculosis ethA mutant 81.10 (Δ1109–1137); format: cell-based, Mycobacterium tuberculosis
[6] = system: M. tuberculosis pyrG mutant 88.7 (V186G); format: cell-based, Mycobacterium tuberculosis
[7] = molecular target: PyrG V186G mutant (Mycobacterium tuberculosis, UniProt P9WHK7, V186G); format: biochemical, M. tuberculosis

| Structure (SMILES) | MIC [1] [µg/mL] | MIC [2] [µg/mL] | MIC [3] [µg/mL] | MIC [4] [µg/mL] | resistance of 81.10 mutant (mutated in ethA gene) [5] | MIC [6] [µg/mL] | MIC [5] [µg/mL] | % of inhibition at 200 M PyrG V186G mutant [7] [%] | activity against PyrG V186G mutant [7] |
| --- | --- | --- | --- | --- | --- | --- | --- | --- | --- |
| Cc1ccc(C(=O)Nc2ccc([N+](=O)[O-])cc2)s1 [compound 7947882, 5-methyl-N-(4-nitrophenyl)thiophene-2-carboxamide] | >40 | >40 | 5 to 10 | >40 |  |  |  |  |  |
| Cc1ccc(C(=O)O)s1 [compound 11326028, 5-methylthiophene-2-carboxylic acid] |  |  |  |  | resistant | > 8 |  |  |  |
| COc1ccc(NC(=O)c2cc([N+](=O)[O-])c(C)s2)cc1OC [compound 11326054] |  |  |  |  | resistant | > 8 |  |  |  |
| CCc1cc(C(N)=S)ccn1 [ETH, ethionamide, reference compound] | 10 (≈ 60.2 µM) | 10 (≈ 60.2 µM) | 0.5 (≈ 3.01 µM) | 10 (≈ 60.2 µM) |  | 0.5 (≈ 3.01 µM) | 10 (≈ 60.2 µM) |  |  |
| O=C(CCc1ccccc1)NC(=S)Nc1ccc(N2CCCCC2)cc1 [compound 7904688, 3-phenyl-N-[(4-piperidin-1-ylphenyl)carbamothioyl]propanamide] | >40 | >40 | 10 (≈ 27.2 µM) | >40 |  | 10 (≈ 27.2 µM) | >40 |  |  |
| CC1=CC=C(C(=O)Nc2ccc([N+](=O)[O-])cc2)S1(=O)=O [compound 11426026] |  |  |  |  |  | 2.5 (≈ 8.5 µM) | 1 (≈ 3.4 µM) | 18.3 ± 1.5 | not active |
